Measured values as given in patent publication US20210395239A1 (Hoffmann-La Roche Inc., priority 2018, published 2021).

Experiments:
[1] = target: T1, hERG channel (Homo sapiens, UniProt Q12809); experiment: hERG channel inhibition assay (patch-clamp, CHOhERG cells); assay type: cell-based; details: for IC20: human, CHO cells stably expressing hERG (CHOhERG); for IC20 / IC50: patch-clamp, CHOhERG cells; for hERG IC20/TLR7 IC50 / hERG IC20/TLR8 IC50 / hERG IC20/TLR9 IC50: safety ratio
T1 construct: expressed in transfected cells; host or cells: CHO (Chinese hamster ovary)
T1 sequence (Q12809 whole entry): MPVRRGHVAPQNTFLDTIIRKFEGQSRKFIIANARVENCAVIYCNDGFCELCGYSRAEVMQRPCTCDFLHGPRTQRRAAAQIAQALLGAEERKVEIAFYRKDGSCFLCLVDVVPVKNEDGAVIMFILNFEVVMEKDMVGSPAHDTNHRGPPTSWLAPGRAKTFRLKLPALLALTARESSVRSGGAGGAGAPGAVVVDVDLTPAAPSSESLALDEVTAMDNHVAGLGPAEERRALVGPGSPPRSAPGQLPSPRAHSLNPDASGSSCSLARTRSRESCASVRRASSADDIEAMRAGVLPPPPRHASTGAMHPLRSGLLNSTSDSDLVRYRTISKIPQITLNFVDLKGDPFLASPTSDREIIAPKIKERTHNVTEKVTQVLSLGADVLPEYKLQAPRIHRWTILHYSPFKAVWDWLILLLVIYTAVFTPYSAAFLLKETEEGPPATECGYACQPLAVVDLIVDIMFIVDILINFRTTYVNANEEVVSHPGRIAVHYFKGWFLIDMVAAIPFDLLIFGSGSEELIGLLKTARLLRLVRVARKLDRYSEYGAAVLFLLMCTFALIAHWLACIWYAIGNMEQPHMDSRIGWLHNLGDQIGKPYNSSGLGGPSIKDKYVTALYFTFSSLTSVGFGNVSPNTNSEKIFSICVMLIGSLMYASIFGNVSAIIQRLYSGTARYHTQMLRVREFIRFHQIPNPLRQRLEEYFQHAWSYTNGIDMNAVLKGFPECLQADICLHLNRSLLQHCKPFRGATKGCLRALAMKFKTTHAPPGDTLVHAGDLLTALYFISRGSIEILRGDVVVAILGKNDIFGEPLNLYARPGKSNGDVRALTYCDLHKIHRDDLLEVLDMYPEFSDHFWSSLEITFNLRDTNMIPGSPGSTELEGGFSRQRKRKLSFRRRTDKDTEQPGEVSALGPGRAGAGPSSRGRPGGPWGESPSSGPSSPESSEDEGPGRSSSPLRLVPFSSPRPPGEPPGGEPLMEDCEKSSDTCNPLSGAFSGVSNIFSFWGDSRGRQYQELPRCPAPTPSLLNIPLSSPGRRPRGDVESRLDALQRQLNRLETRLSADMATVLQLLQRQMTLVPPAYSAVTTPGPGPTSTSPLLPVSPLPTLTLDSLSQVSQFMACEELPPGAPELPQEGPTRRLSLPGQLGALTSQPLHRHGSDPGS
In short: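 Whole-cell voltage-clamp recordings used CHO cells stably expressing human hERG, with IKhERG evoked by a voltage protocol at 0.1 Hz. Increasing compound concentrations were applied, each for 3–10 min to reach steady state, and current amplitude and kinetics were expressed relative to control (100%).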

[2] = target: T2, CYP2D6 (Homo sapiens, UniProt P10635); experiment: CYP inhibition assay in human liver microsome, CYP2D6; assay type: in vitro ADME; details: human, human liver microsomes, probe dextromethorphan 5 μM, substrate dextromethorphan 5 μM, second value of 2C9/2D6/3A4
T2 construct: tissue BD-Gentest 452117; host or cells: human liver microsomes
T2 sequence (P10635 whole entry): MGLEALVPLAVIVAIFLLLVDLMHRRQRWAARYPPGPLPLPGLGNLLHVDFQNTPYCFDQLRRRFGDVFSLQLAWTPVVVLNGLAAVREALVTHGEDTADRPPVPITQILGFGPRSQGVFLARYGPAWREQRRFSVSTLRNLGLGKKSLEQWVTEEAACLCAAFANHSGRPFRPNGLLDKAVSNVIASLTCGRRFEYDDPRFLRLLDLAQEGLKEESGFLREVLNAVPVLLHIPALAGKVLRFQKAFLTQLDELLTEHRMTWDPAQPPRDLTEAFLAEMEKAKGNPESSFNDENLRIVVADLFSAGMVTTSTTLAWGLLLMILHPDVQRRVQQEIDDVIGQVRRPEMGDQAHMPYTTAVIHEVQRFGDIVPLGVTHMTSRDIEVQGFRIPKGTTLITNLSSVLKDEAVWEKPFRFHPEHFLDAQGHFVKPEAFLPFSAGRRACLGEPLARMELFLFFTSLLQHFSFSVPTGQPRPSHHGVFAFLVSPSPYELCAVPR
In short: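 Pooled human liver microsomes with a substrate for each CYP were incubated with compound at 37 °C after NADPH addition, for 5 min (CYP2D6: 10 min), then quenched with acetonitrile containing labelled metabolite standards. Metabolite/internal-standard peak area ratios were measured by RapidFire MS/MS. % inhibition was scaled between DMSO and standard-inhibitor controls.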

Structure (SMILES)	IC20 [1] [µM]	IC50 [1] [µM]	hERG IC20/TLR7 IC50 [1]	hERG IC20/TLR8 IC50 [1]	hERG IC20/TLR9 IC50 [1]	inhibition at 10 min, 10 µM [2] [%]
C[C@@H]1CN(c2ccc(C#N)n3ncc(F)c23)C[C@H](CN2CCN(c3ccc(N[C@H]4CNC[C@H]4F)nc3)CC2)O1 [Example 167, 3-fluoro-4-[(2S,6R)-2-[[4-[6-[[(3S,4R)-4-fluoropyrrolidin-3-yl]amino]-3-pyridyl]piperazin-1-yl]methyl]-6-methyl-morpholin-4-yl]pyrazolo[1,5-a]pyridine-7-carbonitrile]	> 10	> 20	>714	>294	>217	11.5
C[C@@H]1CN(c2ccc(C#N)n3ncc(F)c23)C[C@H](CN2CCN(c3ccc(N4C[C@H]5NCCO[C@@H]5C4)nc3)CC2)O1 [Example 168, 4-[(2S,6R)-2-[[4-[6-[(4aR,7aR)-3,4,4a,5,7,7a-hexahydro-2H-pyrrolo[3,4-b][1,4]oxazin-6-yl]-3-pyridyl]piperazin-1-yl]methyl]-6-methyl-morpholin-4-yl]-3-fluoro-pyrazolo[1,5-a]pyridine-7-carbonitrile]	8.6	> 20	430	150	74	1.5
